In patent US6500853B1, “Inhibitors of phospholipase enzymes” (Genetics Institute, LLC, priority 1998, dated 2002):

Molecular target: T1, cPLA2 (Homo sapiens, UniProt P47712)
T1 sequence (P47712 1-749): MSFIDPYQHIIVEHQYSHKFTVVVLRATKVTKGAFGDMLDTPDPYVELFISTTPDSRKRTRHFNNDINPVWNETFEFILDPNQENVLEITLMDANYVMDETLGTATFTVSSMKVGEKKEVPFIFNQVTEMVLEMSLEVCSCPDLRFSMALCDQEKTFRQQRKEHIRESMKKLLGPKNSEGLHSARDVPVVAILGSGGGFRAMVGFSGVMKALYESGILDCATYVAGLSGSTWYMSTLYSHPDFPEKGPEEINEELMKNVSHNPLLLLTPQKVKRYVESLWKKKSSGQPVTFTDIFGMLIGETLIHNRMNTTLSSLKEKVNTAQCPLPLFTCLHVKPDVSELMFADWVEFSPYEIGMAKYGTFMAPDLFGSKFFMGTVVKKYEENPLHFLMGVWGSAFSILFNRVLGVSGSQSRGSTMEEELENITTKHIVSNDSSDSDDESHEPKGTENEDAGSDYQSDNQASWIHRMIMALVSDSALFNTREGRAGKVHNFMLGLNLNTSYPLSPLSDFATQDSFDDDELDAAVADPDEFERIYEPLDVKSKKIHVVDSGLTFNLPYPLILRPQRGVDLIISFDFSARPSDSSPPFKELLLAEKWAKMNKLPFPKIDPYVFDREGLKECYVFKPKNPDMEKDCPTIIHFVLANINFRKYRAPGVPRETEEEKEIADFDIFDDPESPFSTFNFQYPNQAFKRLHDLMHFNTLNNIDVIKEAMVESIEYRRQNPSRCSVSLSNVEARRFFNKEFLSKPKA
Assay: Coumarin Assay (cPLA2 inhibition)
Format: biochemical
Conditions: for inhibition at 11 µM: CONCENTRATION 11 micromolar; for inhibition at 20 µM: CONCENTRATION 20 micromolar; for inhibition at 4.4 µM: CONCENTRATION 4.4 micromolar
Experimental: Table I reports data for the compounds described in the examples above in cPLA2 inhibition assays (described below). In the data columns of Tables I and II, assay results are reported as a percent inhibition at the concentration specified.
7-hydroxycoumarinyl 6-heptenoate was used as a monomeric substrate for cPLA2 as reported previously (Huang, Z. et al., 1994, Nalytical Biochemistry 222, 110-115). Inhibitors were mixed with 200 μL assay buffer (80 mM Heped, pH 7.5, 1 mM EDTA) containing 60 μM 7-hydroxycoumarinyl 6-heptenoate. The reaction was initiated by adding 4 μg cPLA2 in 50 μL assay buffer. Hydrolysis of the 7-hydroxycounarimyl 6-heptenoate ester was monitored in a fluorometer by exciting at 360 nm and monitoring emission at 460 nm. Enzyme activity is proportional to the increase in emission at 460 nm per minute. In the presence of a cPLA2 inhibitor, the rate of increase is less. The percent inhibition for corresponding concentrations of compounds herein in this Coumarin assay are provided below in Table I.

[1] = CONCENTRATION 100 micromolar, read-out: PERCENT INHIBITION @

In the case of “3-{4-[2-(1-benzhydryl-5-chloro-2-{[(2,6-difluorobenzyl)oxy]methyl}-1H-indol-3-yl)ethoxy]phenyl}propanoic acid [Example 166]”, the “% Inhibition” value (Conc 0.31 uM) is reported as 58%.

In the case of `CCCn1cc(Cc2ccc(C(=O)O)cc2OC)c2cc(NC(=O)OC3CCCC3)ccc21` [Example 1, 4-[(5-{[(cyclopentyloxy)carbonyl]amino}-1-propyl-1H-indol-3-yl)methyl]-3-methoxybenzoic acid], the inhibition at 50 µM (CONCENTRATION 50 micromolar, read-out: PERCENT INHIBITION @) is reported as 7%, the inhibition at 100 µM [1] is reported as 18% and the inhibition at 170 µM (CONCENTRATION 170 micromolar, read-out: PERCENT INHIBITION @) is reported as 50%.

For `COc1cc(C(=O)O)ccc1Cc1cn(Cc2ccc3ccccc3c2)c2ccc(NC(=O)OC3CCCC3)cc12` [Example 4, 4-{[5-{[(cyclopentyloxy)carbonyl]amino}-1-(2-naphthylmethyl)-1H-indol-3-yl]methyl}3-methoxybenzoic acid], the inhibition at 5 µM (CONCENTRATION 5 micromolar, read-out: PERCENT INHIBITION @) was 50% and the inhibition at 11 µM (read-out: PERCENT INHIBITION @) was 50%.

`COc1cc(C(=O)O)ccc1Cc1cn(CC2CC2)c2ccc(NC(=O)OC3CCCC3)cc12` [Example 5, 4-{[5-{[(cyclopentyloxy)carbonyl]aminol}-1-(cyclopropylmethyl)-1H-indol-3-yl]methyl}-3-methoxybenzoic acid] was tested, and the “PERCENT INHIBITION @” value (CONCENTRATION 100 micromolar) was 41% and the “PERCENT INHIBITION @” value (CONCENTRATION 120 micromolar) was 50%.

Compound `COc1cc(C(=O)O)ccc1Cc1cn(Cc2ccncc2)c2ccc(NC(=O)OC3CCCC3)cc12` [Example 6, 4-{[5-{[(cyclopentyloxy)carbonyl]amino}-1-(4-pyridinylmethyl)-1H-indol-3-yl]methyl}-3-methoxybenzoic acid] has an inhibition at 100 µM [1] of 11% and an inhibition at 200 µM (CONCENTRATION 200 micromolar, read-out: PERCENT INHIBITION @) of 50%.

With `COc1cc(C(=O)O)ccc1Cc1cn(C(c2ccccc2)c2ccccc2)c2ccc(S(C)(=O)=O)cc12` [Example 18, 4-{[l-benzhydryl-5-(methylsulfonyl)-1H-indol-3-yl]methyl}-3-methoxybenzoic acid] the “PERCENT INHIBITION @” value (CONCENTRATION 1.2 micromolar) was 50%, the “PERCENT INHIBITION @” value (CONCENTRATION 1.3 micromolar) was 50% and the “PERCENT INHIBITION @” value (CONCENTRATION 1.9 micromolar) was 50%. The “PERCENT INHIBITION @” value (CONCENTRATION 2 micromolar) was 50%.

`COc1cc(C(=O)NS(=O)(=O)c2ccccc2C)ccc1Cc1cn(C(c2ccccc2)c2ccccc2)c2ccc(NC(=O)OC3CCCC3)cc12` [Example 19, Cyclopentyl N-{1-benzhydryl-3-[2-methoxy-4-({[(2-methylphenyl)sulfonyl]amino}carbonyl)benzyl]-1H-indol-5-yl}carbamate] was tested, and the inhibition at 2.2 µM (CONCENTRATION 2.2 micromolar, read-out: PERCENT INHIBITION @) was 50%, the inhibition at 4.2 µM (CONCENTRATION 4.2 micromolar, read-out: PERCENT INHIBITION @) was 50% and the inhibition at 5.8 µM (CONCENTRATION 5.8 micromolar, read-out: PERCENT INHIBITION @) was 50%. It also gave an inhibition at 6.25 µM (CONCENTRATION 6.25 micromolar, read-out: PERCENT INHIBITION @) of 52%, an inhibition at 7.8 µM (CONCENTRATION 7.8 micromolar, read-out: PERCENT INHIBITION @) of 50% and an inhibition at 9 µM (CONCENTRATION 9 micromolar, read-out: PERCENT INHIBITION @) of 50%. The inhibition at 11 µM (read-out: PERCENT INHIBITION @) was 50% and the inhibition at 12 µM (CONCENTRATION 12 micromolar, read-out: PERCENT INHIBITION @) was 50%.

Compound `CCCn1cc(Cc2ccc(C(=O)NS(=O)(=O)c3ccccc3C)cc2OC)c2cc(NC(=O)OC3CCCC3)ccc21` [Example 20, Cyclopentyl N-{3-[2-methoxy-4-({[(2-methylphenyl)sulfonyl]amino}carbonyl)benzyl]-1-propyl-1H-indol-5-yl}carbamate] has an inhibition at 25 µM (CONCENTRATION 25 micromolar, read-out: PERCENT INHIBITION @) of 50% and an inhibition at 32 µM (CONCENTRATION 32 micromolar, read-out: PERCENT INHIBITION @) of 50%.

Work on `COc1cc(C(=O)NS(=O)(=O)c2ccccc2C)ccc1Cc1cn(CC2CC2)c2ccc(NC(=O)OC3CCCC3)cc12` [Example 21, Cyclopentyl N-{1-(cyclopropylmethyl)-3-[2-methoxy-4-({[(2-methylphenyl)sulfonyl]amino}carbonyl)benzyl]-1H-indol-5-yl}carbamate] yielded an inhibition at 20 µM (read-out: PERCENT INHIBITION @) of 50%.

Work on `COc1cc(C(=O)NS(=O)(=O)c2ccccc2C)ccc1Cc1cn(Cc2ccncc2)c2ccc(NC(=O)OC3CCCC3)cc12` [Example 22, Cyclopentyl N-[3-[2-methoxy-4-({[(2-methylphenyl)sulfonyl]amino}carbonyl)benzyl]-1-(4-pyridinylmethyl)-1H-indol-5-yl]carbamate] yielded an inhibition at 38 µM (CONCENTRATION 38 micromolar, read-out: PERCENT INHIBITION @) of 50% and an inhibition at 40 µM (CONCENTRATION 40 micromolar, read-out: PERCENT INHIBITION @) of 50%.

`COc1cc(C(=O)NS(=O)(=O)c2ccccc2C)ccc1Cc1cn(Cc2ccc3ccccc3c2)c2ccc(NC(=O)OC3CCCC3)cc12` [Example 23, Cyclopentyl N-[3-[2-methoxy-4-({[(2-methylphenyl)sulfonyl]amino}carbonyl)benzyl]-1-(2-naphthylmethyl)-1H-indol-5-yl]carbamate] gave an inhibition at 10 µM (CONCENTRATION 10 micromolar, read-out: PERCENT INHIBITION @) of 50% and an inhibition at 20 µM (read-out: PERCENT INHIBITION @) of 58%.

`COc1cc(C(=O)NS(=O)(=O)c2ccccc2C)ccc1Cc1cn(C2CCCC2)c2ccc(NC(=O)OC3CCCC3)cc12` [Example 25, Cyclopentyl N-{1-cyclopentyl-3-[2-methoxy-4-({[(2-methylphenyl)sulfonyl]amino}carbonyl)benzyl]-1H-indol-5-yl}carbamate] showed an inhibition at 13 µM (CONCENTRATION 13 micromolar, read-out: PERCENT INHIBITION @) of 50% and an inhibition at 17 µM (CONCENTRATION 17 micromolar, read-out: PERCENT INHIBITION @) of 50%.

Compound `COc1cc(C(=O)NS(=O)(=O)c2nn(C)c(=NC(C)=O)s2)ccc1Cc1cn(C(c2ccccc2)c2ccccc2)c2ccc(NC(=O)OC3CCCC3)cc12` [Example 29, cyclopentyl N-(3-{4-[({[5-(acetylimino)-4-methyl-4,5-dihydro1,3,4-thiadiazol-2-yl]sulfonyl}amino)carbonyl]-2-methoxybenzyl}-1-benzhydryl-1H-indol-5-yl)carbamate] has an inhibition at 2.5 µM (CONCENTRATION 2.5 micromolar, read-out: PERCENT INHIBITION @) of 50%, an inhibition at 3.4 µM (CONCENTRATION 3.4 micromolar, read-out: PERCENT INHIBITION @) of 50% and an inhibition at 6 µM (CONCENTRATION 6 micromolar, read-out: PERCENT INHIBITION @) of 87%.

In the case of `COc1cc(C(=O)NS(=O)(=O)Cc2ccccc2)ccc1Cc1cn(C(c2ccccc2)c2ccccc2)c2ccc(NC(=O)OC3CCCC3)cc12` [Example 31, cyclopentyl N-[1-benzhydryl-3-(4-{[(benzylsulfonyl)amino]carbonyl}-2-methoxybenzyl)-1H-indol-5-yl]carbamate], the inhibition at 11 µM (read-out: PERCENT INHIBITION @) is reported as 50% and the inhibition at 18 µM (CONCENTRATION 18 micromolar, read-out: PERCENT INHIBITION @) is reported as 50%.

`COc1cc(C(=O)NS(=O)(=O)c2sc(C)nc2C)ccc1Cc1cn(C(c2ccccc2)c2ccccc2)c2ccc(NC(=O)OC3CCCC3)cc12` [Example 32, cyclopentyl N-{1-benzhydryl-3-[4-({[(2,4-dimethyl-1,3-thiazol-5-yl)sulfonyl]amino}carbonyl)-2-methoxybenzyl]-1H-indol-5-yl}carbamate] was tested, and the inhibition at 4 µM (CONCENTRATION 4 micromolar, read-out: PERCENT INHIBITION @) was 50% and the inhibition at 4.4 µM (read-out: PERCENT INHIBITION @) was 50%.

In the case of `COc1cc(C(=O)NS(=O)(=O)c2c(C)noc2C)ccc1Cc1cn(C(c2ccccc2)c2ccccc2)c2ccc(NC(=O)OC3CCCC3)cc12` [Example 33, cyclopentyl N-{1-benzhydryl-3-[4-({[(3,5-dimethyl-4-isoxazolyl)sulfonyl]amino}carbonyl)-2-methoxybenzyl]-1H-indol-5-yl}carbamate], the inhibition at 4.4 µM (read-out: PERCENT INHIBITION @) is reported as 50% and the inhibition at 4.9 µM (CONCENTRATION 4.9 micromolar, read-out: PERCENT INHIBITION @) is reported as 50%.
